Reference: article PMC7832087 (European journal of medicinal chemistry, 2016)
Each block holds one compound with its values, some of them ahead of it.

Key:
Top1 [1] = target: T1, Top1 (Homo sapiens, UniProt P11387); assay: Top1 mediated DNA cleavage; assay type: biochemical; conditions: 117 bp oligonucleotide with Top1 cleavage sites
T1 sequence (P11387 1-765): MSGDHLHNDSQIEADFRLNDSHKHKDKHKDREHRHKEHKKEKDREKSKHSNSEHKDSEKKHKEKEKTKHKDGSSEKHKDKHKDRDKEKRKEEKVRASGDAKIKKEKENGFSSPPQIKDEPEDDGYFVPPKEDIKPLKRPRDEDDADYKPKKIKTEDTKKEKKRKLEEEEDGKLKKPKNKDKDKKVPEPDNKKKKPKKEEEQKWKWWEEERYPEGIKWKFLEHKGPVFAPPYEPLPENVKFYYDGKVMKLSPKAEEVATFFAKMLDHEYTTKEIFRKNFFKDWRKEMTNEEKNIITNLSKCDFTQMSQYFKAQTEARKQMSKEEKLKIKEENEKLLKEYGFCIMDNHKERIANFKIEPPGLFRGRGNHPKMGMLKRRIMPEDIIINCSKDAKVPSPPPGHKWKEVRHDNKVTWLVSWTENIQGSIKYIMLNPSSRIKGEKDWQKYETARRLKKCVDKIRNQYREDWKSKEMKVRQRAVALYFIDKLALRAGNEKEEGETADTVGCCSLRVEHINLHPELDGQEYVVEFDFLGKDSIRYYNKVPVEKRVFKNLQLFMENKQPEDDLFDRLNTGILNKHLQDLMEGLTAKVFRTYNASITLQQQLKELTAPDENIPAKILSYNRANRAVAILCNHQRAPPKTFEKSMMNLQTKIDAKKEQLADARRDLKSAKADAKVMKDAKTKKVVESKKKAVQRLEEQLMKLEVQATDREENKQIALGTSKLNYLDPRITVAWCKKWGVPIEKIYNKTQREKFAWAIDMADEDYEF

K562 and K562/4 cells = assay: Intracellular drug accumulation; assay type: cell-based, human; conditions: 1 μM, 1 h to 24 h
[2] = tested on: i.p. transplanted P388 leukemia; conditions: similar treatment schedule, total dose 150 mg/kg for five days; cited from earlier work
Aurora B = Aurora B (Homo sapiens, UniProt Q96GD4); assay: In vitro kinase assay, Aurora B; assay type: biochemical
Top2 = Top2 (Homo sapiens, UniProt P11388); assay: Top2 DNA relaxation assay; assay type: biochemical
Top1 [3] = assay: Top1 DNA relaxation assay; assay type: biochemical; conditions: no influence at ≤1 μM, effect at 5 μM and 10 μM
[4] = tested on: donor peripheral blood lymphocytes; assay: Cytotoxicity for donor lymphocytes; assay type: cell-based; conditions: data not shown
[5] = tested on: i.p. transplanted P388 leukemia; assay: Antitumor efficacy, i.p. transplanted P388 leukemia
[6] = tested on: HCT116 and HCT116p53KO cells; assay: Annexin V-FITC / PI staining; assay type: cell-based, human; conditions: 1 μM, 24 h
[7] = tested on: 364 human protein kinases; assay: In vitro kinase panel; assay type: biochemical
[8] = Water solubility of salts; assay type: physicochemical

Top2, sequence (P11388 whole entry, species assumed): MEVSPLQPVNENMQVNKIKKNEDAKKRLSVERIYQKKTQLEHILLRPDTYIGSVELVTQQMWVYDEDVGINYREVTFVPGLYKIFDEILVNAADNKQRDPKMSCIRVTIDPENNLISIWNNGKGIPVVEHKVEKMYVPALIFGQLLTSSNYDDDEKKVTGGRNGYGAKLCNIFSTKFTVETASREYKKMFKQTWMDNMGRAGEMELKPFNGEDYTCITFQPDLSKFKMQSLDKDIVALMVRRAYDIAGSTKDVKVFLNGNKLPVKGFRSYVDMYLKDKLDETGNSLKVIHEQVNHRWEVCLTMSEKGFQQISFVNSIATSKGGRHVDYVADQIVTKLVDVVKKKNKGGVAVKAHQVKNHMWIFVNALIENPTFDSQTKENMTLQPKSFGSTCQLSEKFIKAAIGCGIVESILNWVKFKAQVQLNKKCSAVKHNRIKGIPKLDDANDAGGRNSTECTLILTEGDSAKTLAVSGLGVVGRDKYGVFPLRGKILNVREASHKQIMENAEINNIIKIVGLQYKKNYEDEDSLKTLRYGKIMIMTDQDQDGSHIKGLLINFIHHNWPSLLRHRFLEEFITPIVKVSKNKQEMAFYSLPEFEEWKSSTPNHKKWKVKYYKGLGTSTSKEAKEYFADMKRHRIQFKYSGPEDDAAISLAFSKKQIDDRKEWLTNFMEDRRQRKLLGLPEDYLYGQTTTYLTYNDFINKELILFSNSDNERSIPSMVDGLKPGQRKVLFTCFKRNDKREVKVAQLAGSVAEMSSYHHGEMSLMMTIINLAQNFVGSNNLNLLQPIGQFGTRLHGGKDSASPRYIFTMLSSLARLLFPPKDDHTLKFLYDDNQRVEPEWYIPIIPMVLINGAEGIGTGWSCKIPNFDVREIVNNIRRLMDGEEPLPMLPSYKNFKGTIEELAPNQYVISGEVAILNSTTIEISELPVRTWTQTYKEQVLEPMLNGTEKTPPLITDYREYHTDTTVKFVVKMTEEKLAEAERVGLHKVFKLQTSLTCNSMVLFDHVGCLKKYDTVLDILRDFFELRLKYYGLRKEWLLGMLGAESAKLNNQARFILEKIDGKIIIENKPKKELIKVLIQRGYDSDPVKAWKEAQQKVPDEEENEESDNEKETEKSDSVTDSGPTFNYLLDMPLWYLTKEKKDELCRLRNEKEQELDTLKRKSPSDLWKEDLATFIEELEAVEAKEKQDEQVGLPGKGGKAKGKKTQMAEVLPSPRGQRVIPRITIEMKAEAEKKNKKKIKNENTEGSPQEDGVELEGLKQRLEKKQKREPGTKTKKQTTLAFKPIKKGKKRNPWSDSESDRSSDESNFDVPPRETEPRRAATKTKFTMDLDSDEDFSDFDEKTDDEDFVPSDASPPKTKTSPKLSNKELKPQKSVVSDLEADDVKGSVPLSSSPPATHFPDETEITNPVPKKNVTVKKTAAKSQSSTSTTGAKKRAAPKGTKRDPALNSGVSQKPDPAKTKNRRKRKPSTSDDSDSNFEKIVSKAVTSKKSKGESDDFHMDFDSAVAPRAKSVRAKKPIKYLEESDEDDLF
Aurora B, sequence (Q96GD4 whole entry): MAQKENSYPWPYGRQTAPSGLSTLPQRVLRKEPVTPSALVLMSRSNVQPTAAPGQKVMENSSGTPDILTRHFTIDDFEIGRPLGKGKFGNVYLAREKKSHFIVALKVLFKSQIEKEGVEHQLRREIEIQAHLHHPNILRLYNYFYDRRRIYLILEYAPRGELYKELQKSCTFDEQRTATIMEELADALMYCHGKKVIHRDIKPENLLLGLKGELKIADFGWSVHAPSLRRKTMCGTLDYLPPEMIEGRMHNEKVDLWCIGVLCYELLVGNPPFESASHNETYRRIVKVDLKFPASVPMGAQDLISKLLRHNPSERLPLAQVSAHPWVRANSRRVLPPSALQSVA

SMILES: CC[C@@]1(O)C(=O)OCc2c1cc1n(c2=O)Cc2cc3ccccc3nc2-1 [CPT, camptothecin]
Top1 mediated specific DNA cleavage (Top1 [1]): pattern of bands characteristic for specific Top1 poisons

SMILES: COc1cccc2c1C(=O)c1c(O)c3c(c(O)c1C2=O)C[C@@](O)(C(=O)CO)C[C@@H]3O[C@H]1C[C@H](N)[C@H](O)[C@H](C)O1 [Compound 1, doxorubicin, reference compound]
cell associated fluorescence (intracellular accumulation), K562 vs K562/4 (K562 and K562/4 cells): increased to a much lesser extent

IC50 (Aurora B): 130 to 150 µM
Top1 mediated specific DNA cleavage (Top1 [1]): cleaved some but not all these sites
SMILES: O=C1c2ccccc2C(=O)c2c1c(O)c1[nH]cc(CN[C@@H]3CCNC3)c1c2O [Compound 2]
T/Cmax [2]: 155%

SMILES: CS(=O)(=O)O.Cc1oc2c(O)c3c(c(O)c2c1C(=O)N1CC[C@@H](N)C1)C(=O)c1ccccc1C3=O [Compound 3c, (R)-3-(3-Aminopyrrolidine-1-carbonyl)-4,11-dihydroxy-2methylanthra [2,3-b]furan-5,10-dione methanesulfonate]
cell associated fluorescence (intracellular accumulation), K562 vs K562/4 (K562 and K562/4 cells): increased similarly over time
Top2 mediated plasmid DNA relaxation (Top2): even at 40 μM a certain amount of relaxed plasmid DNA was detectable
Top1 mediated relaxation of supercoiled plasmid DNA (Top1 [3]): attenuated Top1 mediated relaxation of the supercoiled plasmid DNA in a dose dependent manner
Top1 mediated specific DNA cleavage (Top1 [1]): poorly generated the specific DNA cleavage
cytotoxicity against donor peripheral blood lymphocytes [4]: no detectable cytotoxicity

SMILES: CS(=O)(=O)O.Cc1oc2c(O)c3c(c(O)c2c1C(=O)N1CC[C@H](N)C1)C(=O)c1ccccc1C3=O [Compound 3d, (S)-3-(3-Aminopyrrolidine-1-carbonyl)-4,11-dihydroxy-2methylanthra [2,3-b]furan-5,10-dione methanesulfonate]
T/C, % ([5]; Table 3, n = 6, single 50 mg/kg i.p. daily days 1–5 (total 250 mg/kg)): death from drug toxicity
toxicity at single dose of 50 mg/kg ([5]; single dose 50 mg/kg i.p. daily for 5 days (total 250 mg/kg)): lethally toxic
general drug toxicity ([5]; single doses of 5–40 mg/kg i.p. daily for 5 days, during or after treatment): No signs of general drug toxicity
cell associated fluorescence (intracellular accumulation), K562 vs K562/4 (K562 and K562/4 cells): increased similarly over time
Top2 mediated plasmid DNA relaxation (Top2): even at 40 μM a certain amount of relaxed plasmid DNA was detectable
Top1 mediated relaxation of supercoiled plasmid DNA (Top1 [3]): attenuated Top1 mediated relaxation of the supercoiled plasmid DNA in a dose dependent manner
Top1 mediated specific DNA cleavage (Top1 [1]): poorly generated the specific DNA cleavage
apoptotic (Annexin V+/PI−) events [6]: increased percentage of apoptotic
human protein kinases attenuated (IC50 < 5 μM) out of 364 [7]: 2.5%
cytotoxicity against donor peripheral blood lymphocytes [4]: no detectable cytotoxicity

SMILES: CS(=O)(=O)O.Cc1oc2c(O)c3c(c(O)c2c1C(=O)N1CCN(C)CC1)C(=O)c1ccccc1C3=O [Compound 3l, 4,11-Dihydroxy-2-methyl-3-(4-methylpiperazine-1carbonyl)anthra [2,3-b]furan-5,10-dione methanesulfonate]
water solubility of the salt [8]: water soluble mesylates

SMILES: COc1cc2c3c(n(CCCNCCO)c(=O)c2cc1OC)-c1cc2c(cc1C3=O)OCO2 [MJ–III–65]
Top1 mediated specific DNA cleavage (Top1 [1]): pattern of bands characteristic for specific Top1 poisons

SMILES: COc1cc([C@@H]2c3cc4c(cc3[C@@H](O[C@@H]3O[C@@H]5CO[C@@H](C)O[C@H]5[C@H](O)[C@H]3O)[C@H]3COC(=O)[C@H]23)OCO4)cc(OC)c1O [VP16, etoposide, reference compound]
Top2 mediated plasmid DNA relaxation (Top2): even at 200 μM of VP16 the DNA remained largely unwound
